Source: patent US8940310B2, “Methods of treatment using TLR7 and/or TLR9 inhibitors” (Dynavax Technologies Corporation, priority 2010, dated 2015)
[I] = hypoxanthine (inosine)

How the values were obtained:
TLR7 = target: T1, TLR7 (Homo sapiens, UniProt Q9NYK1); format: cell-based
T1 construct: endogenous in cells; host or cells: primary human plasmacytoid dendritic cells from blood donors
T1 sequence (Q9NYK1 27-1049): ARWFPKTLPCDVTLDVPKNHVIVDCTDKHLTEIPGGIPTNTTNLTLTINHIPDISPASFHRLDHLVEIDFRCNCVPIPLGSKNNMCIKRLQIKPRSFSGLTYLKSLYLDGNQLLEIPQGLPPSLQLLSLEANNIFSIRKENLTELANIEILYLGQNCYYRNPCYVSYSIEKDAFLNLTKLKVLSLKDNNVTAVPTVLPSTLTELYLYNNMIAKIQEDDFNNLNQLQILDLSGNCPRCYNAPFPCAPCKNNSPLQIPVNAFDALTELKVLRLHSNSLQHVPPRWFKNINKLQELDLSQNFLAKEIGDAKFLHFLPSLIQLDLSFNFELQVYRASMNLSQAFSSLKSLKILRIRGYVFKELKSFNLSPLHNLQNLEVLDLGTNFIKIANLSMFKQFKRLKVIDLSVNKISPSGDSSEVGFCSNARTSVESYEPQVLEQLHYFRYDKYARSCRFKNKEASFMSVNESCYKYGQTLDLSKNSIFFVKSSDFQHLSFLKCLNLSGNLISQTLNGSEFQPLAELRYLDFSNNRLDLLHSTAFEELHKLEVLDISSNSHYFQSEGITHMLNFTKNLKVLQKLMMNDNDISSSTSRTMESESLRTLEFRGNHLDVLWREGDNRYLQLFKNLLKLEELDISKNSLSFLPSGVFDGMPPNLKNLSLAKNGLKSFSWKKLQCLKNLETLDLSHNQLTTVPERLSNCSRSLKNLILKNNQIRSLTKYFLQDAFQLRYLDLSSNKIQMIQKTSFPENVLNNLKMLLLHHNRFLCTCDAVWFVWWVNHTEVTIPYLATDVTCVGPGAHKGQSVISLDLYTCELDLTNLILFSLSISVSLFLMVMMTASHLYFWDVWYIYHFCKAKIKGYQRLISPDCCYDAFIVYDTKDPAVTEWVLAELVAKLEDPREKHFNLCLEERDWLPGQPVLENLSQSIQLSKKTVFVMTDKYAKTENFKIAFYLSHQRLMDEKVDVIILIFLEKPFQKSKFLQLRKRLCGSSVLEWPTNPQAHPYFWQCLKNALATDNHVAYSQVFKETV

TLR7 and TLR9 = assay: Tape stripping skin injury in 129 mice; format: in vivo; details: 24 hr
Description: C57BL/6 and 129 mice were purchased from Charles River Laboratories. (NZBxNZW)F1 female mice were purchased from Jackson Laboratories and used at 18-22 weeks of age. MyD88/KO and TLR9/KO mouse colonies were maintained at Simonsen Laboratories and used with age matched C57BL/6 wild type controls at 8-12 weeks of age. Tape stripping was performed after shaving the dorsal area (3×3 cm) using 10 strokes with duct tape. IRS was administered just before tape stripping SC at a distant site. Alternatively, in (NZBxNZW)F1 mice, IRS was administered long term. In certain experiments PDC and neutrophils were depleted with 250 μg of antibody given IP at day −2 and day 0, eight hours before tape stripping. Anti-120G8 (Imgenex) was used for depletion of PDC (Asselin-Paturel et al., 2003), and anti-GR1-LY6G (clone 1A8; Biolegend) was used for depletion of neutrophils (Daley et al., 2008). […] Percentage of area with open lesions in (NZBxNZW)F1 and normal mice was evaluated with Nikon software NIS-elements.
For analysis of cellular infiltrate mice were sacrificed 24 hr later and epidermis and derma were mechanically separated followed by enzymatic digestion with 0.28 U/ML of Liberase 3 (Roche) for 20 minutes at 37° C., passed trough a 70 μm filter washed in RPMI without serum, counted and stained for flow cytometric analyses. […]

5′-TGC TCC TGG AGI GGT TGT-3′ (DNA TGCTCCTGGAGNGGTTGT; DNA, [I] at 12, backbone and methylation of C not given here) [SEQ ID NO:73]
IC50 (TLR7; read-out: IC50, IFN-α, FLU): 13 nM | IC90 (TLR7; read-out: IC90, IFN-α, FLU): 101 nM

5′-TGCTCCTGGAGGGGTTGT-3′ (DNA, backbone not given here) [SEQ ID NO:42]
expression of IFN-α regulated and pro-inflammatory genes in skin (TLR7 and TLR9; 100 μg s.c. before tape stripping): significantly reduced the expression of both IFN-α regulated genes and pro-inflammatory genes | infiltration of cells including PDC and neutrophils (TLR7 and TLR9): no measurable effect on infiltration of cells
